Experimental data as given in ChEMBL document CHEMBL1201862, “PubChem BioAssay data set” (2004).
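Results reflect a 48-hour exposure of cells in 96-well plates to compound at five concentrations. Here, GI50 denotes the concentration required for 50% inhibition of growth.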 Active and inactive are the calls of the source. Cut-off read from the data, not from the text of the source: active = GI50 up to about 1.1 µM and inactive = higher.

Assays:
Assay in all cases: growth of human tumour cells (NCI), 48 h
K562 = system: K562
SF-539 = system: SF-539
OVCAR-5 = system: OVCAR-5
ACHN = system: ACHN
RXF 393 = system: RXF 393
U-251 = system: U-251
MOLT-4 = system: MOLT-4
SNB-75 = system: SNB-75
MDA-MB-435 = system: MDA-MB-435
SK-OV-3 = system: SK-OV-3
OVCAR-8 = system: OVCAR-8
NCI-H23 = system: NCI-H23
NCI-H226 = system: NCI-H226
SK-MEL-28 = system: SK-MEL-28
DU-145 = system: DU-145
A549 = system: A549
MCF7 = system: MCF7

Measured: GI50

CCCCCCCCCCCCCCCCP(=O)(O)OCC(N)C(=O)O (stereo unspecified)
inactive: K562 > 100 µM | SF-539 26.6 µM | OVCAR-5 21.1 µM | ACHN 22.3 µM | RXF 393 33.7 µM | U-251 29.8 µM | MOLT-4 17.3 µM | SNB-75 26.9 µM | MDA-MB-435 37.3 µM | SK-OV-3 56.1 µM | OVCAR-8 > 100 µM | NCI-H23 90.4 µM | NCI-H226 25.5 µM | SK-MEL-28 > 100 µM | DU-145 > 100 µM | A549 46.2 µM

CCCCCc1c2nc(c(CCCCC)c3ccc([nH]3)c(CCCCC)c3nc(c(CCCCC)c4ccc1[nH]4)C=C3)C=C2
inactive: MCF7 > 100 µM | K562 > 100 µM | SF-539 > 100 µM | OVCAR-5 > 100 µM | ACHN > 100 µM | U-251 > 100 µM | MOLT-4 > 100 µM | SNB-75 > 100 µM | MDA-MB-435 > 100 µM | SK-OV-3 > 100 µM | OVCAR-8 > 100 µM | NCI-H23 > 100 µM | SK-MEL-28 > 100 µM | DU-145 > 100 µM | A549 > 100 µM

Cc1ccc(S(=O)(=O)NC(=O)Nc2c(S(N)(=O)=O)cc(S(N)(=O)=O)c(Cl)c2Cl)cc1
inactive: MCF7 > 100 µM | K562 > 100 µM | SF-539 > 100 µM | OVCAR-5 > 100 µM | ACHN > 100 µM | U-251 > 100 µM | MOLT-4 > 100 µM | MDA-MB-435 > 100 µM | SK-OV-3 > 100 µM | OVCAR-8 > 100 µM | NCI-H23 > 100 µM | NCI-H226 > 100 µM | SK-MEL-28 > 100 µM | A549 > 100 µM

COC(=O)C(=O)C(C(=O)C(=O)Nc1nnc(S)[nH]1)c1nc2ccc([N+](=O)[O-])cc2nc1O (stereo unspecified)
inactive: MCF7 92.7 µM | K562 57.8 µM | SF-539 > 100 µM | OVCAR-5 > 100 µM | ACHN 86.9 µM | RXF 393 > 100 µM | U-251 > 100 µM | SNB-75 > 100 µM | MDA-MB-435 > 100 µM | SK-OV-3 > 100 µM | OVCAR-8 > 100 µM | NCI-H23 > 100 µM | NCI-H226 > 100 µM | SK-MEL-28 > 100 µM | A549 > 100 µM

CC1=C[C@H](C[C@]2(C)c3c(c4c(C)cccc4oc3=O)O[C@@H]2C)OC1=O
inactive: MCF7 52.6 µM | K562 28 µM | SF-539 > 100 µM | OVCAR-5 > 100 µM | ACHN > 100 µM | U-251 > 100 µM | MOLT-4 21.1 µM | SNB-75 > 100 µM | MDA-MB-435 41.7 µM | SK-OV-3 > 100 µM | OVCAR-8 68.1 µM | NCI-H23 65.5 µM | NCI-H226 > 100 µM | SK-MEL-28 > 10 µM | DU-145 > 100 µM | A549 > 100 µM

COc1cc(C2SCC(=O)N2Cc2ccccc2)cc(OC)c1OC (stereo unspecified)
inactive: MCF7 > 100 µM | K562 > 100 µM | SF-539 > 100 µM | OVCAR-5 > 100 µM | ACHN > 100 µM | U-251 > 100 µM | MOLT-4 > 100 µM | MDA-MB-435 > 100 µM | SK-OV-3 > 100 µM | OVCAR-8 > 100 µM | NCI-H23 > 100 µM | NCI-H226 > 100 µM | SK-MEL-28 > 100 µM | DU-145 22.1 µM | A549 > 100 µM

O=C1CCSCCC(=O)Nc2ccccc2N1
inactive: K562 > 100 µM | SF-539 > 100 µM | OVCAR-5 > 100 µM | ACHN > 100 µM | RXF 393 > 100 µM | U-251 > 100 µM | MOLT-4 > 100 µM | MDA-MB-435 > 100 µM | SK-OV-3 > 100 µM | OVCAR-8 > 100 µM | NCI-H23 > 100 µM | NCI-H226 > 100 µM | SK-MEL-28 > 100 µM | DU-145 > 100 µM | A549 > 100 µM

COC(=O)C(=O)C(C(=O)OC)C(=O)C(=O)Nc1c(Cl)cc([N+](=O)[O-])cc1Cl (stereo unspecified)
inactive: MCF7 > 100 µM | K562 > 100 µM | SF-539 > 100 µM | OVCAR-5 > 100 µM | ACHN 80.2 µM | RXF 393 81.3 µM | U-251 68.7 µM | SNB-75 64.1 µM | MDA-MB-435 > 100 µM | SK-OV-3 > 100 µM | OVCAR-8 46 µM | NCI-H23 > 100 µM | NCI-H226 > 100 µM | SK-MEL-28 > 100 µM | A549 > 100 µM

O=C1Cc2c([nH]c3c(Br)cccc23)-c2ccccc2N1
inactive: MCF7 24.6 µM | K562 18.2 µM | SF-539 49.5 µM | OVCAR-5 > 100 µM | ACHN > 100 µM | U-251 57.7 µM | MOLT-4 16.4 µM | SNB-75 33 µM | MDA-MB-435 > 100 µM | SK-OV-3 37.2 µM | OVCAR-8 48.2 µM | NCI-H23 > 100 µM | NCI-H226 > 100 µM | DU-145 > 100 µM | A549 > 100 µM
